This is an account of results in patent US6815446B1, “Selective antagonists of A2B adenosine receptors” (Vanderbilt University, priority 1999, dated 2004).

Molecules are shown by their SMILES. Where two headings read alike, the source gives them in different places. Some results are limits rather than exact numbers.

For assay [1], the target named is T1, rat A3 (Rattus norvegicus, UniProt P28647).
T1 construct: expressed in transfected cells
T1 sequence (P28647 1-320): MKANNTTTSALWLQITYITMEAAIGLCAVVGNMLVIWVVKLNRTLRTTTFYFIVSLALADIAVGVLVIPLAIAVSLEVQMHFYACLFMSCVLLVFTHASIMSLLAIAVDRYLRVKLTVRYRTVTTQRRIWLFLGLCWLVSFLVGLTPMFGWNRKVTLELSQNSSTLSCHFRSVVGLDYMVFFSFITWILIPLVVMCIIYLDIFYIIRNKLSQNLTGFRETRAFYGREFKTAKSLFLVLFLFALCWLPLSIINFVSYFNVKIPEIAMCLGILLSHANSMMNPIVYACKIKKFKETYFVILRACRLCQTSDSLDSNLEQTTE
The following applies: rat (r); [125I]APNEA, CHO cells transfected with rat A3; read-out: Antagonist potency (K1 or KB) A3 Receptor; cited from earlier work.

In assay [2] the target is T2, A2B Receptor (Homo sapiens, UniProt P29275).
T2 sequence (P29275 1-332): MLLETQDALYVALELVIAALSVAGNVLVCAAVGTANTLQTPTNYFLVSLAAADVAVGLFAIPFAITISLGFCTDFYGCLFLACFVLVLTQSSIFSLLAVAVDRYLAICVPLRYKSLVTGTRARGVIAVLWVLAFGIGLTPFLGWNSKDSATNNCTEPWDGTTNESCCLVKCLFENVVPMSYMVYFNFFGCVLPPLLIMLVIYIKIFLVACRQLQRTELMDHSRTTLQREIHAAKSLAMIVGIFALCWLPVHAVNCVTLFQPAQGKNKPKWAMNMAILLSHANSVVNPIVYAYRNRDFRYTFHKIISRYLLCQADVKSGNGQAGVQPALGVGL
The following applies: background statement; cited from earlier work.

For assay [3], the target named is T2, A2B Receptor. Kind of assay: Inhibition of NECA-stimulated cAMP in HEL (human erythroleukemia) cells, Schild analysis. It is filed as cell-based. On the set-up: endogenous in cells; host or cells: human erythroleukemia (HEL) cells. The following applies: for Schild analysis, type of antagonism at A2B receptors: NECA cAMP dose-response curves in human erythroleukemia cells with increasing antagonist concentrations, FIG. 1; for Kb: human (h), NECA-stimulated cAMP in HEL cells, read-out: Antagonist potency (K1 or KB) A2B Receptor. An excerpt: A Schild analysis derived from dose-response curves for accumulation of cAMP produced by NECA in human erythroleukemia cells in the absence and in the presence of increasing concentrations of the antagonists. […] The intercept at the x-axis is an estimate of the Ki of the antagonists.

Assay [4] concerns the target T3, A1 Receptor (Rattus norvegicus, UniProt P25099).
T3 sequence (P25099 1-326): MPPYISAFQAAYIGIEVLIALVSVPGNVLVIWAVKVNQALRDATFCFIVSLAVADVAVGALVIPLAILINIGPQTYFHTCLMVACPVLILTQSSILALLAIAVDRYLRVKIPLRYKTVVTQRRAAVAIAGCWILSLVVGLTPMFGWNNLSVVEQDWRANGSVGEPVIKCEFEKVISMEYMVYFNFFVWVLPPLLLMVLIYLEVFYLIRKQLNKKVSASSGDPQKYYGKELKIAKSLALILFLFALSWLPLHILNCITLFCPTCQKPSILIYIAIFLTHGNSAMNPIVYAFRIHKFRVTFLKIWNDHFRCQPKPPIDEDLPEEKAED
The following applies: read-out: Antagonist potency (K1 or KB) A1 Receptor; rat (r); [3H]PIA, rat brain membranes; cited from earlier work.

Assay [5] concerns the target A2A Receptor (Rattus norvegicus, UniProt P30543). Particulars: read-out: Antagonist potency (K1 or KB) A2A Receptor; rat (r); CGS 21680 radioligand, rat striatal membranes; cited from earlier work.
Assay [6] has as its target T4, human A1 (Homo sapiens, UniProt P30542).
T4 construct: expressed in transfected cells
T4 sequence (P30542 1-326): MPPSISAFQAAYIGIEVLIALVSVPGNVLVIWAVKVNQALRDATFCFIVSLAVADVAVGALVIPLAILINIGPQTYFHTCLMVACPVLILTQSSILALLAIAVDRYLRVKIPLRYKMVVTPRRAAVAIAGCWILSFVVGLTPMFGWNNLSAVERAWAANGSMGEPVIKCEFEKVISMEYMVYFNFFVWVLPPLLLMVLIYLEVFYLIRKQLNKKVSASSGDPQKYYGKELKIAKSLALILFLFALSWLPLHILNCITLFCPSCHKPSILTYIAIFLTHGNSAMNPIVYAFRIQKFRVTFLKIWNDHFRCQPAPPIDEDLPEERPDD
Particulars: human (h); [3H]DPCPX, HEK-293 cells transfected with human A1; read-out: Antagonist potency (K1 or KB) A1 Receptor; cited from earlier work.

Assay [7] has as its target T5, human A3 (Homo sapiens, UniProt P0DMS8).
T5 construct: expressed in transfected cells
T5 sequence (P0DMS8 1-318): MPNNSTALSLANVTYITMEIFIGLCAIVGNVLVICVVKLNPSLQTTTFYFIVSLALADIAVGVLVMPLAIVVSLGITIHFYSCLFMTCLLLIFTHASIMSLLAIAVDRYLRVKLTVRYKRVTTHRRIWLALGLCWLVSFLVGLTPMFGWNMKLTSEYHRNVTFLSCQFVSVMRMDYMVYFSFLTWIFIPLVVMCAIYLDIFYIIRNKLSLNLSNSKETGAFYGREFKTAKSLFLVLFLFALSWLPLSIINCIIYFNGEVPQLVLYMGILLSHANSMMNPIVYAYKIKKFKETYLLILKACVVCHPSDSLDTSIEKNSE
As to the kind of experiment: Displacement of [3H]NECA from CHO cells transfected with human A3. Particulars: read-out: Antagonist potency (K1 or KB) A3 Receptor. The assay is classed as binding.

In assay [8] the target is T6, A2A Receptor (Homo sapiens, UniProt P29274).
T6 construct: endogenous in cells; host or cells: HMC-1 cells
As to the kind of experiment: Inhibition of CGS 21680-stimulated cAMP in HMC-1 cells. The assay is classed as cell-based. Particulars: human (h), read-out: Antagonist potency (K1 or KB) A2A Receptor.

Assay [9] addresses T4, human A1. As to the kind of experiment: Displacement of [3H]DPCPX from membranes of CHO cells transfected with human A1. The assay is classed as binding. Particulars: read-out: Antagonist potency (K1 or KB) A1 Receptor. A general note: In a radioligand displacement assay an active substance lowers the binding of a labelled ligand.

Chain of A2A Receptor (Rattus norvegicus, UniProt P30543) (P30543 whole entry): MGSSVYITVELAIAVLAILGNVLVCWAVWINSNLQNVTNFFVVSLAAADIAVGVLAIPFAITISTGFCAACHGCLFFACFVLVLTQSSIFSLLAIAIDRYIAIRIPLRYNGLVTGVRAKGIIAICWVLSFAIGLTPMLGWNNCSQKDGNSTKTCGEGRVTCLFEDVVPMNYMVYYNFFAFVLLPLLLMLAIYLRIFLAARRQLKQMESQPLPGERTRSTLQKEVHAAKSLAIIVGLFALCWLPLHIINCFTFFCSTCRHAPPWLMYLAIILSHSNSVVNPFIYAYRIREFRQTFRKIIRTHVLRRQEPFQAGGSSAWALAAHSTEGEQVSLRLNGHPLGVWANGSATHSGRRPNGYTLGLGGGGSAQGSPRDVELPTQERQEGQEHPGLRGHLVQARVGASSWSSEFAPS
T6 sequence (P29274 whole entry): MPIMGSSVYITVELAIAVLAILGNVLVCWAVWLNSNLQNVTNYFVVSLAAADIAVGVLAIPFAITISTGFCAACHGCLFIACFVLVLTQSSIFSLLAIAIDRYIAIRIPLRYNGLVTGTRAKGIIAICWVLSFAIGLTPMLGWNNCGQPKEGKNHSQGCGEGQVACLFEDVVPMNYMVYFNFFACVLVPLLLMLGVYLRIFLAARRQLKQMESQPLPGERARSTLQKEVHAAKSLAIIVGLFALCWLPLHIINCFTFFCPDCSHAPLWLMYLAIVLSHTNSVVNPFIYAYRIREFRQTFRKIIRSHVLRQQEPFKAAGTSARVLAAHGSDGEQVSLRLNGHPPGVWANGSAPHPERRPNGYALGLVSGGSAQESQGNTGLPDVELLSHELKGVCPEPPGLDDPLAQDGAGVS

For `Cn1c(=O)c2[nH]cnc2n(C)c1=O` [Theophylline], in assay [1], the Kb is above 100 µM.
Consider `CCCn1c(=O)c2[nH]c(-c3ccc(S(=O)(=O)O)cc3)nc2n(CCC)c1=O` [DPSPX, 1,3-dipropyl-8-p-sulfophenylxanthine], for which the “Affinity of xanthine antagonists at A2B receptors” value in assay [2] was “mid to high nM range”. For the same compound, the “Schild analysis, type of antagonism at A2B receptors” value (“Schild analysis, type of antagonism” for short) in assay [3] is given as “competitive antagonism”. The Kb was 0.14 µM in assay [3], 0.14 µM in assay [4], above 100 µM in assay [1] and 0.79 µM in assay [5].
On to `CCCn1c(=O)[nH]c(=O)c2nc[nH]c21` [Enprofylline], for which the “Schild analysis, type of antagonism” value in assay [3] is recorded as “competitive antagonism”. Also, the Kb in assay [6] was 156 µM.
Turning to `CC(C)Cn1c(=O)[nH]c(=O)c2[nH]c(N3CCCC3)nc21` [Formula (I)], the “Schild analysis, type of antagonism” value in assay [3] is given as “competitive antagonism”. The “Potency compared with enprofylline” value in [3] (comparison from the potency table) is on record as “much higher than that of enprofylline”. For the same compound, the Kb came to 0.525 µM in assay [3], 53 µM in [7], 20 µM in [8] and 31 µM in assay [9].
Consider `CCNC(=O)[C@H]1O[C@@H](n2cnc3c(NCc4ccccc4)ncnc32)[C@@H](O)C1O` (stereo partly shown) [N^6-benzyl NECA], for which the “Agonist activity or affinity at A2B receptors” value in assay [2] is “very low affinity”.

What is called Kb is the equilibrium dissociation constant of an antagonist, usually derived from a functional assay.
